Assay [1] can be described thus: Antimicrobial activity against aspergillus sp and Candida albicans; Inactive. The class given is functional.
For assay [2], the system named is Bacteria. The experiment in a line: Antimicrobial activity against gram positive and gram negative bacteria; Active. Format: functional, organism-based.
Assay [3] has as its system Bacillus subtilis. As to the kind of experiment: Minimum inhibitory concentration against Bacillus subtilis. The class given is functional.
In assay [4] the test system is Escherichia coli. As to the kind of experiment: Minimum inhibitory concentration against Escherichia coli. The class given is functional.
Assay [5] has as its system Pseudomonas aeruginosa. As to the kind of experiment: Minimum inhibitory concentration against Pseudomonas aeruginosa. Format: functional.
In assay [6] the test system is Staphylococcus aureus. As to the kind of experiment: Compound was evaluated for minimum inhibitory concentration against Staphylococcus aureus. Format: functional.
Assay [7] deals with Kocuria rosea. As to the kind of experiment: Minimum inhibitory concentration against Micrococcus roseus. Format: functional.
In assay [8] the test system is Bacteria. The experiment in a line: Compound tested for in vitro antimicrobial activity against gram positive and gram negative bacteria; Active. The class given is functional, organism-based.
Assay [9] relates to Staphylococcus aureus. The experiment in a line: Minimum inhibitory concentration against Staphylococcus aureus. Format: functional.
In assay [10] the test system is Bacillus subtilis. As to the kind of experiment: Compound was evaluated for minimum inhibitory concentration against Bacillus subtilis;Zero growth inhibition. The class given is functional, organism-based.
For assay [11], the system named is Staphylococcus aureus. As to the kind of experiment: Compound was evaluated for minimum inhibitory concentration against Staphylococcus aureus;Zero growth inhibition. The class given is functional, organism-based.
Assay [12] relates to Bacteria. As to the kind of experiment: Antimicrobial activity against gram positive and gram negative bacteria; Inactive. The class given is functional, organism-based.

Each structure is given as a SMILES string. ≈ marks a conversion by molar mass, not a printed value. Calls of active or inactive are those of the source. The calls are words filed in the database; no cut-off is given here.

A word on the MIC: it is the lowest concentration that inhibits growth of the organism. Read a high MIC as weaker potency. By Inhibition is commonly meant the drop in the measured response relative to a control, in per cent. A higher Inhibition goes with a response far below the control. As for `O=C(O)[C@H](c1ccccc1)N1Cc2ccccc2C1=O`, the result in assay [1] was inactive. The outcome in assay [2] was Active. The MIC turned out to be 529 mg/L (≈ 1.98 mM) in assay [3], 1620 mg/L (≈ 6.06 mM) in [4], 3600 mg/L (≈ 13.5 mM) in [5] and 729 mg/L (≈ 2.73 mM) in assay [7]. In [6], this compound gave an Inhibition of 0%.

Turning to `C[C@@H](C(=O)O)N1Cc2ccccc2C1=O`, the outcome in assay [1] was inactive. Further, the outcome in assay [8] was Active. For the same compound, the minimum inhibitory concentration (MIC) in assay [3] was found to be 729 mg/L (≈ 3.55 mM); in assay [4] it was 1620 mg/L (≈ 7.89 mM); in assay [5] it was 3600 mg/L (≈ 17.5 mM); in assay [9] it was 1620 mg/L (≈ 7.89 mM); in assay [7] it was 1620 mg/L (≈ 7.89 mM).

For `O=C(O)[C@H](CO)N1Cc2ccccc2C1=O`, in assay [1], the outcome was inactive. Moreover, the outcome in assay [2] was Active. Besides, the minimal inhibitory concentration (MIC) in assay [3] is 729 mg/L (≈ 3.3 mM); in [4], 1620 mg/L (≈ 7.32 mM); in [5] it was 3600 mg/L (≈ 16.3 mM); in [9] it was 3600 mg/L (≈ 16.3 mM); in assay [7], 2610 mg/L (≈ 11.8 mM).

Take `O=C(O)C[C@@H](C(=O)O)N1Cc2ccccc2C1=O`: the outcome in assay [1] was inactive. The result in [2] was Active. In addition, the MIC stood at 147 mg/L (≈ 0.59 mM) in assay [3]; 729 mg/L (≈ 2.93 mM) in assay [4]; 1620 mg/L (≈ 6.5 mM) in [5]; 3600 mg/L (≈ 14.4 mM) in [9]; 2610 mg/L (≈ 10.5 mM) in assay [7].

`O=C1c2ccccc2C(O)N1Cc1ccccc1` (stereo not drawn): in [1], the result was inactive. In assay [2], the outcome was Active. The MIC entry in assay [10] was “Zero growth inhibition”; in assay [4], 2610 mg/L (≈ 10.9 mM); in [5] it was 3600 mg/L (≈ 15 mM); in assay [11] it was “Zero growth inhibition”; in [7], 1620 mg/L (≈ 6.77 mM).

On to `CC(C)CC(C(=O)O)N1Cc2ccccc2C1=O` (stereo not drawn), for which the outcome in assay [1] was inactive. Besides, the outcome in [2] was Active. Further, the MIC worked out at 729 mg/L (≈ 2.95 mM) in assay [3]; 3600 mg/L (≈ 14.6 mM) in assay [4]; 3600 mg/L (≈ 14.6 mM) in assay [5]; 3600 mg/L (≈ 14.6 mM) in assay [9]; 3600 mg/L (≈ 14.6 mM) in [7].

As for `O=C(O)[C@H](Cc1ccccc1)N1Cc2ccccc2C1=O`, the outcome in assay [1] was inactive. In [2], the result was Active. Moreover, the minimum inhibitory concentration (MIC) in assay [3] came to 1180 mg/L (≈ 4.18 mM); in [4] it was 3600 mg/L (≈ 12.8 mM); in assay [5], 3600 mg/L (≈ 12.8 mM); in assay [7] it was 2610 mg/L (≈ 9.28 mM). The same compound gave an Inhibition in [6] of 0%.

As for `CC(C)C1COC2c3ccccc3C(=O)N21` (stereo not drawn), the result in assay [12] was inactive.

Consider `O=C1c2ccccc2C2OCC(c3ccccc3)N12` (stereo not drawn), for which the outcome in assay [1] and in assay [12] was inactive.

Regarding `Cc1ccc(N2Cc3ccccc3C2=O)cc1`, the outcome in assay [1] and in assay [12] was inactive.

Take `O=C1c2ccccc2C2OCC(Cc3ccccc3)N12` (stereo not drawn): the outcome in assay [1] and in assay [12] was inactive.

For `C[C@H](C(=O)O)N1Cc2ccccc2C1=O`, the result in assay [1] was inactive. Besides, in assay [8], the result was Active. Moreover, the MIC came out at 328 mg/L (≈ 1.6 mM) in assay [3]; 3600 mg/L (≈ 17.5 mM) in assay [4]; 3600 mg/L (≈ 17.5 mM) in assay [5]; 1620 mg/L (≈ 7.89 mM) in [9]; 2610 mg/L (≈ 12.7 mM) in [7].

As for `CCC(C)C(C(=O)O)N1Cc2ccccc2C1=O` (stereo not drawn), in [1], the outcome was inactive. The result in assay [2] was Active. Besides, the minimal inhibitory concentration (MIC) in assay [3] came to 729 mg/L (≈ 2.95 mM); in assay [4], 1620 mg/L (≈ 6.55 mM); in assay [5], 3600 mg/L (≈ 14.6 mM); in assay [9], 3600 mg/L (≈ 14.6 mM); in [7], 1180 mg/L (≈ 4.75 mM).

Turning to `CC(C)[C@@H](C(=O)O)N1Cc2ccccc2C1=O`, the outcome in assay [1] was inactive. Further, the result in assay [2] was Active. Further, the MIC in assay [3] is 1620 mg/L (≈ 6.94 mM); in assay [4], 1620 mg/L (≈ 6.94 mM); in assay [5] it was 3600 mg/L (≈ 15.4 mM); in assay [9], 3600 mg/L (≈ 15.4 mM); in [7] it was 1620 mg/L (≈ 6.94 mM).

`CC(C)[C@H](C(=O)O)N1Cc2ccccc2C1=O`: the result in assay [1] was inactive. For the same compound, in assay [2], the outcome was Active. Further, the MIC came to 1620 mg/L (≈ 6.94 mM) in assay [3]; 3600 mg/L (≈ 15.4 mM) in assay [4]; 3600 mg/L (≈ 15.4 mM) in [5]; 3600 mg/L (≈ 15.4 mM) in [9]; 1620 mg/L (≈ 6.94 mM) in assay [7].

With `COc1ccc(N2Cc3ccccc3C2=O)cc1`, the result in assay [1] and in assay [12] was inactive.

For the compound `CC(c1ccccc1)N1Cc2ccccc2C1=O` (stereo not drawn), the result in [1] and in [12] was inactive.

Values taken from ChEMBL document CHEMBL1133243, “Synthesis and antimicrobial activity of some isoindolin-1-ones derivatives” (2000).
